Laboratory results: patent US12280026B2, “Use of repirinast in the prophylaxis or treatment of renal fibrosis or kidney disease” (ALGERNON PHARMACEUTICALS INC., priority 2018, dated 2025)
Entries after “also recorded” stand apart in the source; their conditions may differ. Marks after values point to notes of the source that are not given here.

Legend:
[1] = Example 2: UUO mice, mean body weight change following surgery; assay type: in vivo, C57BL/6 mice; conditions: UUO, female C57BL/6 mice, PO QD days 1-14, mg/kg: Telmisartan 3, Bemithyl 200, Repirinast 30, Telmisartan+Bemithyl 3+200, Telmisartan+Repirinast 3+30, Cenicriviroc 40, Bromantane 40
Procedure: (§1) In this example, healthy young female C57BL/6 mice were used for the study. At the commencement of the study, mice were between 9-12 weeks of age, weighing 23-25 g. All the mice were obtained from Charles River Laboratories.
(§2) The mice were maintained in a controlled environment with a temp 70-72° F., humidity 30-70%, with a photo cycle of 12 hours of light and 12 hours of dark. They were provided with Harlan Teklad 2018 standard maintenance mouse chow diet and drinking water ad libitium.
(§3) After five days of acclimatization, the mice were grouped according to their body weight. There were ten groups of ten mice each. Nine groups of ten mice each underwent UUO as described above and the other group of ten mice underwent a sham procedure to serve as a no-surgery control.
(§4) Following surgery, the mice were divided into 10 individual study groups of 10 mice each and, following post-surgical recovery, administered a once-daily oral treatment for 14 days. The mice in 8 of the 10 study groups had all received the UUO surgical ligation and were treated individually with a distinct pharmacologic compound as set out in Table 6. The mice in 2 of the 10 study groups were treated individually with a pharmaceutically acceptable vehicle with no active ingredient. The pharmaceutically acceptable vehicle in all groups was 0.5% carboxymethyl cellulose (CMC). All mice were sacrificed with CO2 on post-surgical day 15.
(§5) The dose selected for the animal studies was determined by taking the maximum known human daily dose, dividing by the average weight of an adult (˜60-70 kg) to get a human mg/kg dose. That number was multiplied by 12 to convert to a mouse dose based on conventional dosing tables. See Nair and Jacob, J Basic Clin Pharm March 2016-May 2016, 7(2):27-31.
Body weight: The body weights were measured on days 1, 4, 7, 10 and 14 using a laboratory balance.
Body weights were measured on post-surgical days 1, 4, 7, 10 and 14 as previously described. The mean body weight change of each study group was calculated using the body weight average of all mice in each study group.

[2] = test system: C57BL/6 mice with UUO surgical ligation; assay: Example 2: UUO mice, renal fibrosis evaluation (Sirius Red histology score); assay type: in vivo
Procedure: as §1, §2, §3, §4, §5
Histopathology: Formalin-fixed kidney cross-section samples were subjected histopathological scoring with Sirius Red staining, and imaged at a magnification of ×20, using standard techniques. All three sections were stained and evaluated. The analysis was performed by a board-certified veterinarian pathologist. The presence of interstitial damage and severity score was assessed according to the following criteria: 0=normal; 1=light; 2=moderate; 3=severe.
(§6) The data are presented as the mean obtained from Microsoft Excel or GraphPad Prism version 5.00 for Windows (GraphPad Software, San Diego California USA). Data were analyzed using two-way ANOVA using Bonferroni and Tamhane post-tests. Differences between groups were considered significant at p<0.05.
Renal Fibrosis Evaluation: Renal fibrosis and interstitial damage was evaluated by histochemical staining of renal cross-sections with Sirius Red as previously described. The Histology Score of each study group consisted of the histology score average of all mice in each study group.

[3] = test system: C57BL/6 mice with UUO surgical ligation; assay: Example 2: UUO mice, kidney weight evaluation; assay type: in vivo; conditions: group mean, UUO, female C57BL/6 mice, PO QD days 1-14, mg/kg: Telmisartan 3, Bemithyl 200, Repirinast 30, Telmisartan+Bemithyl 3+200, Telmisartan+Repirinast 3+30, Cenicriviroc 40, Bromantane 40
Procedure: as §1, §2, §3, §4, §5
Kidney weight: The UUO was then examined in situ to ensure that the surgical ligation ties remained patent. Both the ligated (UUO) and non-ligated kidneys were removed for analysis. Weights of both kidneys were measured using a laboratory balance.
as §6
Kidney Weight Evaluation: Kidney weight, which indicates functional and pathological changes in the kidney, was evaluated by measuring the weight of both the ligated (UUO) and non-ligated kidneys as previously described. The ligated and non-ligated kidney weights of each study group consisted of the respective kidney weight averages of all mice in each study group.

[4] = test system: C57BL/6 mice with UUO surgical ligation; assay: Example 2: UUO mice, renal function evaluation (plasma BUN, creatinine); assay type: in vivo
Procedure: as §1, §2, §3, §4, §5
(§7) Serum collection: A blood sample was then collected from all mice and plasma analyzed for urea nitrogen and creatinine. Plasma was stored at −80° C. for possible future analysis.
as §6
(§8) Renal Function Evaluation: Renal function and disease progression was evaluated by BUN (blood urea nitrogen) as previously described. The BUN of each study group consisted of the BUN average of all mice in each study group.

[5] = test system: C57BL/6 mice with UUO surgical ligation; assay: Example 1: UUO mice, renal function evaluation (plasma BUN, creatinine); assay type: in vivo; conditions: Example 1; for Reduction in BUN compared to vehicle, significance in words: Bonferroni post-test, Suplatast Tosylate 60, Iguratimod 15, Lobenzarit 48, Actarit 60, Udenafil 40 mg/kg PO QD; for BUN in comparison to control groups, in words: UUO, male C57BL/6 mice, PO QD days 1-14, doses of Table 1
Procedure: (§9) Male 9-12 week old C57BL/6 mice of 23-25 grams body weight were used. All mice were acclimated for a minimum of 5 days prior to the start of the study and housed individually in microisolators throughout the study in a 12:12 light-dark cycle on a standard maintenance mouse chow diet (Harlan Teklad 2018) with food and water given ad libitum. Prior to surgery, all mice were weighed for baseline body weight.
(§10) The UUO surgical intervention was performed according to previously described methods known in the art (Le Meur Y et al., Macrophage accumulation at a site of renal inflammation is dependent on the M-CSF/c-fms pathway, J Leukocyte Biol., 72:530-537; 2002).
(§11) All mice were first anesthetized by intraperitoneal injection with a rodent cocktail (ketamine 10 mg/mL and Xyaline 1 mg/mL) in normal saline (10 μL/g body weight). Pedal reflex and movement of the vibrissae were used to determine the state of unconsciousness. A state of unconsciousness was confirmed after a period of about 5 minutes in all animals. All mice were then shaved on the left side of the abdomen. The shaved area was first swabbed with iodine and then swabbed with alcohol. A vertical incision was made through the skin with a #22 scalpel and the skin was then retracted. A further incision of about 2.5 cm was then made through the peritoneum avoiding any major blood vessels. The peritoneum was then retracted and the left kidney was exposed.
(§12) The left kidney was then brought to the surface by hooking the ureter directly beneath the kidney with sterile forceps and gently manipulating the kidney upward. The ureter was ligated at two points directly below the kidney with 5-0 surgical silk with excess suture cut away and discarded post-ligation. The kidney was then gently placed back to its correct anatomical position and the abdomen was lavaged with 1 mL sterile saline to replenish fluid loss. The peritoneum and then skin were sutured with 5-0 Mersilene, and the incision site was gently wiped with iodine. All mice were then placed individually in clean cages that were set on top of a thermal blanket until recovery at about 30-60 minutes later. In some examples, sham surgery was performed as a control by following all steps of the UUO surgical intervention procedure except ligation.
(§13) Following surgery, the mice were divided into 14 individual study groups of 8 mice each and, following post-surgical recovery, administered a once-daily oral treatment for 14 days. The mice in 12 of the 14 study groups (hereafter known as “treatment groups”) had all received the UUO surgical ligation and were treated individually with a distinct pharmacologic compound as set out in Table 1. The mice in 2 of the 14 study groups were treated individually with a pharmaceutically acceptable vehicle with no active ingredient. The pharmaceutically acceptable vehicle in all groups was 0.5% carboxymethyl cellulose (CMC). All mice were sacrificed with CO2 on post-surgical day 15.
The dose selected for the animal studies was determined by taking the maximum known human daily dose, dividing by the average weight of an adult (˜60-70 kg) to get a human mg/kg dose. Then that number was multiplied by 12 to convert to a mouse dose based on conventional dosing tables. See Nair and Jacob, J Basic Clin Pharm March 2016-May 2016, 7(2):27-31.
as §7, §8

[6] = test system: C57BL/6 mice with UUO surgical ligation; assay: Example 1: UUO mice, renal fibrosis evaluation (Sirius Red histology score); assay type: in vivo; conditions: Bemithyl 200, Emoxypine 160, Suplatast Tosylate 60, Udenafil 40, Telmisartan 5 mg/kg PO QD
Procedure: as §9, §10, §11, §12, §13
The dose selected for the animal studies was determined by taking the maximum known human daily dose, dividing by the average weight of an adult (˜60-70 kg) to get a human mg/kg dose. […]
Histopathology: Formalin-fixed kidney cross-section samples were subjected histopathological scoring with Sirius Red staining, and imaged at a magnification of ×20, using standard techniques. All three sections were stained and evaluated. […] The presence of interstitial damage and severity score was assessed according to the following criteria: 0=normal, 1=light, 2=moderate, 3=severe. […]

[7] = Example 2, mg/kg PO QD: Telmisartan 3, Bemithyl 200, Repirinast 30, Telmisartan+Bemithyl 3+200, Telmisartan+Repirinast 3+30, Cenicriviroc 40, Bromantane 40

## CCCCOCCOc1ccc(-c2ccc3c(c2)/C=C(/C(=O)Nc2ccc([S@@+]([O-])Cc4cncn4CCC)cc2)CCCN3CC(C)C)cc1 [Cenicriviroc]
[1]; Day 1
  Mean Body Weight Change Following Surgery, Day 1: 0 g
[1]; Day 4
  Mean Body Weight Change Following Surgery, Day 4: -0.30 g
[1]; Day 7
  Mean Body Weight Change Following Surgery, Day 7: -0.12 g
[1]; Day 10
  Mean Body Weight Change Following Surgery, Day 10: 0.18 g
[1]; Day 14
  Mean Body Weight Change Following Surgery, Day 14: 0.82 g
[2]; [7]
  Level of kidney fibrosis / histology score compared to vehicle or other agents, in words: statistically insignificant improvements
[2]; Sirius Red, 0=normal, 1=light, 2=moderate, 3=severe, group mean, UUO, female C57BL/6 mice, PO QD days 1-14, mg/kg: Telmisartan 3, Bemithyl 200, Repirinast 30, Telmisartan+Bemithyl 3+200, Telmisartan+Repirinast 3+30, Cenicriviroc 40, Bromantane 40
  Histology Score: 1.63*#
[2]; from histology score, UUO, female C57BL/6 mice, PO QD days 1-14, mg/kg: Telmisartan 3, Bemithyl 200, Repirinast 30, Telmisartan+Bemithyl 3+200, Telmisartan+Repirinast 3+30, Cenicriviroc 40, Bromantane 40
  Reduction of fibrosis (%) (versus vehicle): 32%
[3]; ligated kidney drained
  Drained Left Kidney: 0.1683 g
[3]; ligated kidney
  Excised Left Kidney: 0.4091 g
[3]; unligated kidney
  Right Kidney (g): 0.1342* g
[4]; [7]
  Level of BUN compared to vehicle or other agents, in words: this reduction was not significant
[4]; plasma at sacrifice day 15, group mean, * significant vs vehicle Bonferroni, # Tamhane (p<0.05), UUO, female C57BL/6 mice, PO QD days 1-14, mg/kg: Telmisartan 3, Bemithyl 200, Repirinast 30, Telmisartan+Bemithyl 3+200, Telmisartan+Repirinast 3+30, Cenicriviroc 40, Bromantane 40
  BUN: 19.9 mg/dL
[4]; plasma at sacrifice day 15, group mean, UUO, female C57BL/6 mice, PO QD days 1-14, mg/kg: Telmisartan 3, Bemithyl 200, Repirinast 30, Telmisartan+Bemithyl 3+200, Telmisartan+Repirinast 3+30, Cenicriviroc 40, Bromantane 40
  Creatinine: 0.21 mg/dL

## O=C(O)c1ccccc1Nc1cc(Cl)ccc1C(=O)O [Lobenzarit, 2-[(2-Carboxyphenyl)amino]-4-chlorobenzoic acid]
[5]
  Reduction in BUN compared to vehicle, significance in words: significant reductions in BUN
  BUN in comparison to control groups, in words: less renal dysfunction and disease progression than the positive control treatment; also recorded: decreased in comparison to the sham surgery control group

## CS(=O)(=O)Nc1cc2occ(NC=O)c(=O)c2cc1Oc1ccccc1 [Iguratimod, N-(7-(Methylsulfonamido)-4-oxo-6-phenoxy-4H-chromen-3-yl)formamide]
[5]
  Reduction in BUN compared to vehicle, significance in words: significant reductions in BUN
  BUN in comparison to control groups, in words: less renal dysfunction and disease progression than the positive control treatment; also recorded: decreased in comparison to the sham surgery control group

## CCc1nc(C)ccc1O [Emoxypine, 2-Ethyl-6-methyl-3-hydroxypyridine]
[5]
  BUN in comparison to control groups, in words: less renal dysfunction and disease progression than the positive control treatment
[6]
  Kidney fibrosis / Histology Score, significance and comparison in words: the same as the positive control treatment group; also recorded: significant reductions in kidney fibrosis; also recorded: significant reduction in fibrosis compared to vehicle

## CC(=O)Nc1ccc(CC(=O)O)cc1 [Actarit, (4-Acetamidophenyl)acetic acid]
[5]
  Reduction in BUN compared to vehicle, significance in words: significant reductions in BUN
  BUN in comparison to control groups, in words: less renal dysfunction and disease progression than the positive control treatment; also recorded: decreased in comparison to the sham surgery control group
